# Values of other authors, collected in patent US5741805A, “Controlled release pilocarpine delivery system” (OraMed, Inc., priority 1995, dated 1998).
# System: xerostomia
# Conditions: 5 mg capsules or tablets three to four times a day
smiles,measurement,value
"CC[C@@H]1C(=O)OC[C@@H]1Cc1cncn1C [Pilocarpine, pilocarpine]",salivary function,marked improvement
same,side effects,numerous side effects
